In patent US20260167629A1, “NOVEL INDAZOLE DERIVATIVE OR PHARMACEUTICALLY ACCEPTABLE SALT THEREOF, AND USE THEREOF” (KOREA UNIVERSITY RESEARCH AND BUSINESS FOUNDATION, priority 2022, published 2026):

Experiments:
[1] = tested on: prostate cancer cell line Du145; test: MTS cell viability assay in Du145; type: cell-based; settings: Du145, 0.1-20 μM, 72 hours
Method: (§1) Specifically, cells were attached to 96 well plates for 24 hours, and then treated with the indazole derivatives for 72 hours. Thereafter, the cells were chromogenized with MTS for 4 hours, and the absorbance was measured at 490 nm using a Spectramax Plus384 microplate analyzer. The significance between the control group and the experimental group was verified using an unpaired Students t-test (*p<0.01; DMSO control vs indazole series).
(§2) In addition to the breast cancer cell line, a leukemia cell line HL-60, a liver cancer cell line HepG2, a colorectal cancer cell line HCT116, a prostate cancer cell line Du145, an ovarian cancer cell line SKOV3, and non-small cell lung cancer cell lines NCI-H1299 and A549 were treated with compound 11k (formula 1-7) at concentrations of 0 (DMSO), 0.1, 0.5, 1, 2, 5, 10, and 20 μM, respectively, for 72 hours, and then cell viability was measured using the MTS assay technique as explained by the description of Experimental Example 1. The significance between the control group and the experimental group was verified using an unpaired Students t-test (*p<0.01; DMSO control vs compound 11k).

[2] = tested on: liver cancer cell line HepG2; test: MTS cell viability assay in HepG2; type: cell-based; settings: HepG2, 0.1-20 μM, 72 hours
Method: as §1, §2

[3] = tested on: ovarian cancer cell line SKOV3; test: MTS cell viability assay in SKOV3; type: cell-based; settings: SKOV3, 0.1-20 μM, 72 hours
Method: as §1, §2

[4] = tested on: non-small cell lung cancer cell line NCI-H1299; test: MTS cell viability assay in NCI-H1299; type: cell-based; settings: NCI-H1299, 0.1-20 μM, 72 hours
Method: as §1, §2

[5] = tested on: colorectal cancer cell line HCT116; test: MTS cell viability assay in HCT116; type: cell-based; settings: HCT116, 0.1-20 μM, 72 hours
Method: as §1, §2

leukemia cell line HL-60 = test: MTS cell viability assay in HL-60; type: cell-based; settings: HL-60, 0.1-20 μM, 72 hours
Method: as §1, §2

[6] = Toxicity in JIMT-1 xenograft mice, combination with paclitaxel (body weight, AST, ALT, BUN); type: in vivo, Balb/c nude mice; settings: combination study
[7] = tested on: non-small cell lung cancer cell line A549; test: MTS cell viability assay in A549; type: cell-based; settings: A549, 0.1-20 μM, 72 hours
Method: as §1, §2

[8] = tested on: JIMT-1 breast cancer cell line xenograft; test: Tumor growth in JIMT-1 xenograft mouse model, combination with paclitaxel; type: in vivo, Balb/c nude mice
Method: This experiment was performed in an in vivo environment using a xenograft mouse model transplanted with the JIMT-1 breast cancer cell line.
6-week-old mice (Balb/c nude mice) were purchased and raised in an environment where they could freely access food and water. The mice were acclimated for more than 7 days, and then were transplanted with tumor cells. Tumor cells were injected subcutaneously into the mammary gland tissue of JIMT-1 breast cancer cells at a density of 3×10^6 cells/mL per individual, and when the tumor reached a size of 50 to 100 mm^3, the indazole derivative of the present disclosure was administered intraperitoneally, and the tumor growth was measured.

COc1c(C(=O)Nc2ccc3c(C)nn(CCC4CCN(C)CC4)c3c2)ccc2c1C=CC(C)(C)O2 [compound 11k, 5-Methoxy-2,2-dimethyl-N-(3-methyl-1-(2-(1-methylpiperidin-4-yl)ethyl)-1H-indazol-6-yl)-2H-chromene-6-carboxamide]
cell viability [1]: effective in inhibiting cell viability
cell viability [2]: effective in inhibiting cell viability
cell viability [3]: effective in inhibiting cell viability
cell viability [4]: effective in inhibiting cell viability
cell viability [5]: effective in inhibiting cell viability
cell viability (leukemia cell line HL-60): effective in inhibiting cell viability
AST and ALT levels, BUN assay ([6]; blood of the mouse model): levels similar to those of the control group
body weight [6]: remained unchanged
cell viability [7]: effective in inhibiting cell viability
tumor weight ([8]; measured after tumor resection): 500 mg
tumor volume ([8]; measured at 40 days after drug administration): 786.392 mm^3
